Laboratory results reported in patent US20170049739A1, “PROSTACYCLIN COMPOUNDS, COMPOSITIONS AND METHODS OF USE THEREOF” (INSMED INCORPORATED, priority 2013, published 2017).
“Also recorded” adds a separate entry of the source.

Tests used:
esterase = assay: Esterase mediated conversion of treprostinil compounds to treprostinil; type: in vitro ADME; conditions: 37° C., up to 1 hr
Description: A set of studies was conducted to determine the conversion kinetics to treprostinil of linear treprostinil compounds versus various branched treprostinil compounds. 0.4 mM of linear C8-TR or branched treprostinil compounds 2-dimethyl-1-propanyl-TR, 3,3-dimethyl-1-butanyl-TR, 2-ethyl-1-butanyl-TR, 5-nonanyl-TR, or 3-pentanyl-TR (see below for structures) were incubated with 0.2 U esterase at 37° C. for 1 hour, and the conversion (% of total) was calculated at 0.25, 0.5, 0.75, or 1 hour incubation time. • C8-TR (i.e., the compound of Formula (A) wherein R2=
The conversion is relative to the C8-TR compound and conversion was measured at 1 hr. post esterase incubation, • C8-TR (i.e., the compound of Formula (A) wherein R2=
Conversion was measured at 1 hr. post esterase incubation. • 4C7-TR (i.e., the compound of Formula (A) wherein R2=

CHO-K1 cells = assay: CHO-K1 cell proliferation assay; conditions: unformulated alkyl esters, 48 hour incubation; for Effect on cell proliferation: concentration with detectable inhibition: 0.195 μM-25 μM
Description: CHG-K1 cells were harvested when the cell monolayer was 50-90% confluent (use passage 4-11). Media was aspirated out of the flask, and cells were rinsed with 2 mL of F12 media. Next, 1 mL of pre-warmed (37° C.) 0.25%o trypsin-EDTA (Life Technologies, Cat#: 25300054) was added, and cells were dislodged from the flask by tapping it on the side. Complete growth media (F12 (Life Technologies, Cat #: 31765092) +10%FBS (Hyclone, Cat #: SH30071.03)+1× Pen-Strep (Life Technologies, cat #15140-122) was then added at a volume of 10 mL. Cells were eentrifuged at 250×g for 5 minutes at room temperature, and the media was aspirated. The cell pellet was resuspended in 10 ml. complete growth media. Cell number was determined using a hemacytometer. Ceils were then seeded at 2000 cells per well of a 96-well plate in 100 μL of complete growth media. The plate was incubated overnight at 37° C. and 5% CO2 in a water-jacketed incubator.
The next day, 80 μL of fresh complete media was added to each well, and CHO—K1 cells were challenged with treprostinil compound and composition treatments. The working solutions were prepared at 10× concentration, and following 2 fold serial dilutions, 20 μL aliquots were added per well to arrive at a final 1× concentration. Following a 48 hour incubation at 37° C. and 5% CO2 in a water-jacketed incubator, the inhibitory effect on cell proliferation was determined. Plates were analyzed using 20 μL of Presto Blue reagent (Life Technologies, cat #: A13262) per well. The reagent was mixed, and plates were incubated for 1 hour at 37° C. and 5% CO2 in a water-jacketed incubator. Plates were read using either a CytoFluor Series 4000 (PerSeptive BioSystems) or Synergy Neo microplate reader (BioTek) with emission λ: 590 nm and excitation λ: 560 nm.
Following a 48 hour incubation period, the inhibitory effect of the treprostinil derivative compositions on cell proliferation was determined.
CHO—K1 cells were challenged with treprostinil alkyl esters, i.e., TR compounds of Formula (A), having the following R2 groups: • C2, C3, C4, C5, C6, C8, C10 or C12 straight chain alkyl, at dosages ranging from 0.098 μM to 25 μM, Following a 48 hour incubation period, the inhibitory effect on cell proliferation was determined.
Following a 72 hour incubation period, the inhibitory effect on cell proliferation was determined. Following a 48 hour incubation period, the inhibitory effect on cell proliferation was determined.
Similarly, CHG-K1 cells were challenged with the treprostinil compositions T612 (R2═C2), T613 (R2═C8) at concentrations ranging from 1.41 μM to 180 μM.

NR8383 cells = assay: NR8383 cell proliferation assay; type: cell-based, rat; conditions: unformulated alkyl esters, 72 hour incubation; for Effect on cell proliferation: 0.195 μM-25 μM
Description: Rat alveolar NR8383 cells were harvested when the monolayer was 50-90% confluent (use passage 5-11). Because the NR8383 cells include both adherent and non-adherent cells, media was transferred to a 50 mL Falcon tube. To obtain the cells remaining in the flask, 2 mL of plain media was added, and the remaining cells were scraped out of the 75 cm^2 flask with a cell scraper and added to the 50 mL tube. […] SH30071.03) […] Technologies, cat #: 15410-122)). Cell number was determined using a hemacytometer. […] Measurements and calculations were made as described above for the CHO-K1 cells.

| Structure (SMILES) | esterase mediated conversion rate compared with other compounds (esterase) | Effect on cell proliferation: concentration with detectable inhibition (CHO-K1 cells) | Effect on cell proliferation (NR8383 cells) | other results |
| --- | --- | --- | --- | --- |
| CCCCC[C@H](O)CC[C@@H]1[C@H]2Cc3cccc(OCC(=O)OC(CCC)CCC)c3C[C@H]2C[C@H]1O [4C7-TR] | slower conversion rate than the linear compound C8-TR | – | – | – |
| CCCCCC(O)CCC1C(O)CC2Cc3c(cccc3OCC(=O)OC(CCC)CCCC)CC21 (stereo not drawn) [4C8-TR] | slower conversion rate than the linear compound C8-TR; also recorded: slower conversion rate than the symmetrical compounds | – | – | – |
| CCCCCC[C@@H](C)OC(=O)COc1cccc2c1C[C@H]1C[C@@H](O)[C@H](CC[C@@H](O)CCCCC)[C@H]1C2 [(R)-2C8-TR] | no significant difference between the conversion rates of R and S isomers | – | – | – |
| CCCCCC[C@H](C)OC(=O)COc1cccc2c1C[C@H]1C[C@@H](O)[C@H](CC[C@@H](O)CCCCC)[C@H]1C2 [(S)-2C8-TR] | no significant difference between the conversion rates of R and S isomers | – | – | – |
| CCCCC[C@H](O)CC[C@@H]1[C@H]2Cc3cccc(OCC(=O)OCC)c3C[C@H]2C[C@H]1O [C2-TR, treprostinil ethyl ester] | – | No detectable cell inhibition | No detectable cell inhibition | – |
| CCCCC[C@H](O)CC[C@@H]1[C@H]2Cc3cccc(OCC(=O)OCCC)c3C[C@H]2C[C@H]1O [C3-TR] | – | No detectable cell inhibition | No detectable cell inhibition | – |
| CCCCC[C@H](O)CC[C@@H]1[C@H]2Cc3cccc(OCC(=O)OCCCC)c3C[C@H]2C[C@H]1O [C4-TR] | – | No detectable cell inhibition | No detectable cell inhibition | – |
| CCCCCCOC(=O)COc1cccc2c1C[C@H]1C[C@@H](O)[C@H](CC[C@@H](O)CCCCC)[C@H]1C2 [C6-TR] | – | No detectable cell inhibition | No detectable cell inhibition | – |
| CCCCCCCCOC(=O)COc1cccc2c1C[C@H]1C[C@@H](O)[C@H](CC[C@@H](O)CCCCC)[C@H]1C2 [C8-TR, treprostinil octyl ester] | – | 25 µM | – | inhibition of cell proliferation at the highest concentration (CHO-K1 cells): showed inhibition of cell proliferation; inhibition of cell proliferation at the highest concentration (NR8383 cells): showed some inhibition of cell proliferation |
